{
  "source": "patent US20110104159A1",
  "about": "“COMPOSITIONS AND METHODS FOR TREATING, CONTROLLING, REDUCING, AMELIORATING, OR PREVENTING ALLERGY” (priority 2006, published 2011)",
  "key": {"[1]": {"tested_on": "rabbit paracentesis model", "assay": "Rabbit paracentesis model of ocular inflammation (overall conclusion)", "type": "in vivo", "details": "0.1%, 0.5% and 1% topical; preliminary conclusion", "excerpt": "Inflammatory processes are multidimensional in origin, and are characterized by complex cellular and molecular events involving numerous components all of which have not been identified. Prostaglandins are among these mediators and play an important role in certain forms of ocular inflammation. Paracentesis of the anterior chamber in the rabbit eye induces inflammatory reaction due to the disruption of the blood-aqueous barrier (“BAB”), which is mediated, at least in part, by prostaglandin E2 [References 1-3 below]. Intraocular or topical administration of PGE2 disrupts the BAB. [Reference 4, below] The treatment schedule adopted in this study was similar to the clinical NSAIDs (Ocufen) treatment schedule used by surgeons for patients before cataract surgery.\nEach rabbit was placed in a restraint device and tagged with the alphanumeric code. The formulations were instilled (50 μl) into the conjunctival sac of both eyes 180, 120, 90 and 30 min before the first paracentesis; then 15, 30, 90 min after the first paracentesis. To perform the first paracentesis the animals were anaesthetized by intravenous injection of 5 mg/kg Zoletil® (Virbac; 2.5 mg/kg tiletamine HCl and 2.5 mg/kg zolazepam HCl) and one drop of local anesthetic (Novesina®, Novartis) was administered to the eye. […]"}, "[2]": {"tested_on": "MPO", "assay": "Myeloperoxidase (MPO) activity in iris-ciliary body", "type": "in vivo, Rabbit", "details": "for MPO activity in iris-ciliary body, statistical comparison with CTR: p<0.001; for Mean MPO Unit/g (MPO activity in iris-ciliary body samples): group mean, after the second paracentesis; for MPO Unit/g (raw data of MPO activity in iris-ciliary body samples): individual eyes (DX/SX) of rabbits, samples collected after the second paracentesis, listed as BOL", "protocol": "2.3.2.1 Phosphate Buffer (50 mM; pH=6)\n3.9 g of NaH2PO4 2H2O were dissolved in a volumetric flask to 500 ml with water. The pH was adjusted to pH=6 with 3N NaOH.\n0.5 g of hexa-decyl-trimethyl-ammonium bromide was dissolved in 100 ml phosphate buffer.\nThe solution was prepared freshly. Ten microliters of H2O2 (30 wt. %) were diluted to 1 ml with water (solution A). 7.5 mg o-dianisidine 2HCl were dissolved in 45 ml of phosphate buffer and 75 μl of solution A were added.\nEach rabbit was placed in a restraint device and tagged with the alphanumeric code. The formulations were instilled (50 μl) into the conjunctival sac of both eyes 180, 120, 90 and 30 min before the first paracentesis; then 15, 30, 90 min after the first paracentesis. To perform the first paracentesis the animals were anaesthetized by intravenous injection of 5 mg/kg Zoletil® (Virbac; 2.5 mg/kg tiletamine HCl and 2.5 mg/kg zolazepam HCl) and one drop of local anesthetic (Novesina®, Novartis) was administered to the eye. Anterior chamber paracentesis was performed with a 26 G needle attached to a tuberculin syringe; the needle was introduced into the anterior chamber through the cornea, taking care not to damage the tissues. Two hours after the first paracentesis, the animals were sacrificed with 0.4 ml Tanax® (Intervet International B.V.) and the second paracentesis was performed. About 100 μl of aqueous humor were removed at the second paracentesis. Aqueous humor was immediately split in four aliquots and stored at −80° C. until analysis. Then both eyes were enucleated and the iris-ciliary body was carefully excised, placed in polypropylene tubes, and stored at −80° C. until analysis.\nThe activity of MPO was measured as previously described by Williams et al. The iris-ciliary bodies were carefully dried, weighed and immersed in 1 ml of hexa-decyl-trimethyl-ammonium bromide solution. Then, the samples were sonicated for 10 sec on ice by a ultrasound homogenizer (HD 2070, Bandelin electronic), freeze-thawed three times, sonicated for 10 sec and centrifuged at 14,000 g for 10 min to remove cellular debris. An aliquot of the supernatant (40-200 μl) was diluted to 3 ml with the o-dianisidine 2HCl/H2O2 solution. The change in absorbance at 460 nm was continuously monitored for 5 min by a spectrophotometer (UV/Vis Spectrometer Lambda EZ 201; Perkin Elmer). The slope of the line (Δ/min) was determined for each sample and used to calculate the number of units of MPO in the tissue as follows:\nwhere ε=11.3 mM^−1. Values were expressed as units of MPO/g of tissue."}, "[3]": {"tested_on": "CXCR4 receptor", "assay": "CXCR4 receptor surface expression in human eosinophils (FACS), transactivation marker", "type": "cell-based", "details": "24 h", "protocol": "FACS was performed to measure cell surface expression of annexin I and CXCR4 as indicators of glucocorticoid-mediated transactivation. Human eosinophils were double-stained with a red dye-conjugated secondary antibody to trace changes in the expression of CXCR4 or I, and a green dye-conjugated annexin V to exclude apoptotic cells from the analysis. The cells were counted and transferred to a 24-well plate (10^6 cells/well) and serum-starved (0.1% FBS) for 24 h.\nAt the end of the incubation, the cells were harvested and each sample was divided into two tubes to run parallel tests for annexin I and CXCR4 surface expression. After rinsing all samples with a HBSS solution containing 1% BSA, the cells were incubated for 45 min on a shaker with anti-annexin I or anti-CXCR4 antibodies (1:200) on ice; the negative control was incubated with an isotype-specific control antibody.\nThe cells were then washed twice with HBSS/BSA buffer before exposure to the Alexa Fluor® 568-conjugated secondary antibody. The excess of unbound antibody was washed away, and all samples were incubated for 15 min in the presence of annexin V-Fluos. […] Electronic gates were set on annexin V-negative cells and CXCR4 or annexin I-positive cells. Data from 10,000 cells/sample were analyzed using dedicated software (Becton, Dickinson and Company). The % of CXCR4 or annexin I positive cells was calculated."}, "[4]": {"tested_on": "ovalbumin-sensitized guinea pigs", "assay": "Conjunctival eosinophil infiltration (histology) in OVA-challenged guinea pigs", "type": "in vivo, guinea pig", "details": "0.4% eye drops; 24 h after OVA challenge; vs OVA-treated animals", "protocol": "Male Dunkin-Hartley guinea pigs were actively immunized by i.p. injection of 200 μg OVA in 2 ml saline with 40 mg aluminum hydroxide (positive control) or saline alone (negative control), as previously reported. […] Negative controls received saline alone.\nConjunctival clinical symptoms were rated blind on both eyes using the following scale: 0, no symptoms; 1, slight conjunctival redness with or without tears; 2, mild conjunctival redness with tears and mild chemosis; 3, mild conjunctival redness with tears and moderate chemosis; 4, severe conjunctival redness with tears and partial lid eversion; 5, severe conjunctival redness with tears and lids more than half closed. The animals were euthanized 24 h after OVA challenge by i.p. injection of Tanax® (3 ml/kg; Hoechst AG, Frankfurt-am-Main, Germany) and the conjunctivas were carefully excised and each was divided into two samples for subsequent investigations. One sample was fixed in 10% buffered paraformaldehyde solution and paraffin-embedded; slides, 6 μm thick, were stained as described. The number of eosinophils in each field was counted under light microscopy (×500 magnification). In the other sample eosinophil peroxidase activity was measured."}, "[5]": {"tested_on": "cultured human ocular cells", "details": "cultured human ocular cells [13, 29]; cited from earlier work"}, "[6]": {"tested_on": "peripheral human blood eosinophils", "assay": "Spontaneous eosinophil apoptosis (annexin V/PI flow cytometry)", "experimental": "To assess glucocorticoid-induced apoptosis, cells were double-stained with annexin V-Fluos and propidium iodide (PI). Annexin V-Fluos was used according to the manufacturer's instructions.\nThe suspension was incubated at room temperature for 10 min and analyzed in the BD FACS Canto II flow cytometry system (Becton, Dickinson and Company, New Jersey, USA). Eosinophils and EoL-1 cells were gated on the basis of their forward and side light scatter, with cell debris excluded from analysis. Apoptotic cells were defined as annexin V^+/PI^− cells. A two-way dot plot was prepared to verify the percentage of apoptotic cells. Annexin V^−/PI^− cells were used as control and annexin V^+/PI^+ cells were considered necrotic.\nAll data are expressed as mean±S.E.M. for the number of experiments indicated. Statistical comparisons were made by ANOVA and post-hoc Newman-Keuls test with differences of P<0.05 considered significant."}},
  "note": "Values joined by “and” are separate entries in the source; they are usually repeats but may differ in a detail not shown here. Equal entries are not always repeated.",
  "data": [
    {"smiles": "Cc1ccc2c(NC[C@](O)(CC(C)(C)c3cc(F)cc4c3OCC4)C(F)(F)F)cccc2n1", "note": "[BOL-303242-X, (R)-1,1,1-Trifluoro-4-(5-fluoro-2,3-dihydrobenzofuran-7-yl)-4-methyl-2-{[(2-methyl-5-quinolyl)amino]methyl}pentan-2-ol]", "values": [
      {"measurement": "Activity in the rabbit paracentesis model", "setting": "[1]", "result": "active in this model"},
      {"measurement": "MPO activity in iris-ciliary body, statistical comparison with CTR", "setting": "[2]; 0.1% topical", "result": "statistical significance"},
      {"measurement": "Mean MPO Unit/g (MPO activity in iris-ciliary body samples)", "setting": "[2]; 0.1% treatment", "result": 0.971, "unit": "Unit/g"},
      {"measurement": "MPO Unit/g (raw data of MPO activity in iris-ciliary body samples)", "setting": "[2]; 0.1% treatment", "result": "1.04 Unit/g and 1.00 Unit/g and 1.14 Unit/g and 1.06 Unit/g and 1.22 Unit/g and 0.61 Unit/g and 1.05 Unit/g and 0.65 Unit/g"},
      {"measurement": "MPO activity in iris-ciliary body, statistical comparison with CTR", "setting": "[2]; 0.5% topical", "result": "statistical significance"},
      {"measurement": "Mean MPO Unit/g (MPO activity in iris-ciliary body samples)", "setting": "[2]; 0.5% treatment", "result": 0.775, "unit": "Unit/g"},
      {"measurement": "MPO Unit/g (raw data of MPO activity in iris-ciliary body samples)", "setting": "[2]; 0.5% treatment", "result": "0.85 Unit/g and 0.93 Unit/g and 0.79 Unit/g and 1.03 Unit/g and 0.75 Unit/g and 0.74 Unit/g and 0.54 Unit/g and 0.58 Unit/g"},
      {"measurement": "MPO activity in iris-ciliary body, statistical comparison with CTR", "setting": "[2]; 1% topical", "result": "statistical significance"},
      {"measurement": "Mean MPO Unit/g (MPO activity in iris-ciliary body samples)", "setting": "[2]; 1% treatment", "result": 0.542, "unit": "Unit/g"},
      {"measurement": "MPO Unit/g (raw data of MPO activity in iris-ciliary body samples)", "setting": "[2]; 1% treatment", "result": "0.66 Unit/g and 0.68 Unit/g and 0.49 Unit/g and 0.40 Unit/g and 0.34 Unit/g and 1.02 Unit/g and 0.31 Unit/g and 0.43 Unit/g"},
      {"measurement": "CXCR4 receptor surface expression", "setting": "[3]; 10 000 nM, significantly lower than 1000 nM dexamethasone", "result": "partially increased this receptor on the cell surface"},
      {"measurement": "CXCR4 receptor surface expression", "setting": "[3]; up to 5000 nM, vs vehicle-treated or control eosinophils", "result": "did not change CXCR4 receptor expression"},
      {"measurement": "Eosinophil infiltration of the conjunctiva (histology)", "setting": "[4]", "result": "much less marked"},
      {"measurement": "Blocking inflammatory cytokine release", "setting": "[5]", "result": "equally potent in blocking inflammatory cytokine release"},
      {"measurement": "Eosinophil apoptosis after 24 h exposure", "setting": "[6]; 24 h, 0.1% FBS, 100 and 1000 nM, data not shown", "result": "lower but significant apoptosis"},
      {"measurement": "Percentage of annexin-V+/PI+ (necrotic) peripheral blood eosinophils", "setting": "[6]; 48 h, 5000 nM, mean±SEM, n=12, p>0.05 vs without compound (34±10%)", "result": "25±9", "unit": "%"},
      {"measurement": "Efficacy, enhancement of spontaneous eosinophil apoptosis", "setting": "[6]; 48 h, 0.1% FBS, no GM-CSF/IL-5, 1-5000 nM", "result": 90, "unit": "%"},
      {"measurement": "EC50", "setting": "[6]; read-out: EC50, enhancement of spontaneous eosinophil apoptosis, 48 h, 0.1% FBS, no GM-CSF/IL-5, 1-5000 nM", "result": 456, "unit": "nM"}
    ]}
  ]
}
